Data on 75 compounds can be found in PubChem BioAssay AID1996.

The structures appear in SMILES notation. In brackets after ≈: the same amount, converted by molar mass.

For this data set the following is noted: buffer; pH 7.4; 200.0 µM.
For `CNc1c(NC(=O)C2CCC(C)CC2)c(=O)oc2ccccc12` (stereo not given), the kinetic solubility (usually solubility judged after dilution from a stock solution rather than from solid) was 1.8 µg/mL (≈ 5.73 µM).

For `Cc1ccc(NC(=O)Nc2cc(C)on2)cc1`, the solubility (kinetic) is 12.8 µg/mL (≈ 55.4 µM).

`CN(C(=O)COC(=O)c1cccc(Cl)c1)C1CCS(=O)(=O)C1` (stereo not given) had a solubility (kinetic) of more than 51.9 µg/mL.

`COC(=O)c1[nH]c2c(c1C)C(=O)CC(c1ccc(OC)c(OC)c1)C2` (stereo not given) returned a solubility (kinetic) of 2.1 µg/mL (≈ 6.12 µM).

The compound `CCOc1ccc(N2C(=O)C3CCCN3C2=S)cc1` (stereo not given) yielded a solubility (kinetic) of more than 41.5 µg/mL.

As for `O=[N+]([O-])c1ccc2c(c1)C(c1ccccc1)=NCCN2`, the kinetic solubility is 16.8 µg/mL (≈ 62.9 µM).

The compound `N#C/C(=C(/O)c1ccco1)c1nc2ccccc2s1` returned a kinetic solubility of more than 40.2 µg/mL.

Take `Cc1cc(N2C(=O)Cc3ccccc3C2=O)ccc1C(C)C`: the kinetic solubility came out at 35 µg/mL (≈ 119 µM).

Regarding `O=C(CN1CCN(c2ccccc2F)CC1)NC(=O)NC1CCCCC1`, the solubility (kinetic) is more than 54.4 µg/mL.

The compound `CCOC(=O)c1cc(C(C)(C)C)nc(SC)c1C#N` displayed a solubility (kinetic) of 1.3 µg/mL (≈ 4.67 µM).

The compound `CC(C)NC(=O)NC(=O)CSc1ncccn1` displayed a kinetic solubility of more than 38.1 µg/mL.

Take `CS(=O)(=O)N1CCC(C(=O)Nc2cccc([N+](=O)[O-])c2)CC1`: the kinetic solubility came to 44.3 µg/mL (≈ 135 µM).

Regarding `O=C(O)C(=O)O.c1cncc(CNCCc2ccc3c(c2)OCO3)c1`, the kinetic solubility is more than 52 µg/mL.

Turning to `Cc1ccccc1N1C(=O)Cc2ccccc2C1=O`, the solubility (kinetic) turned out to be 35.4 µg/mL (≈ 141 µM).

`O=C(COC(=O)COc1ccccc1F)NC1CC1` came in with a solubility (kinetic) of 37 µg/mL (≈ 138 µM).

In turn, `CCOC(=O)C1(Cc2ccccc2)C(=O)Nc2ccccc21` (stereo not given) displayed a kinetic solubility of 37.1 µg/mL (≈ 126 µM).

For `COc1cccc2cc(C(=O)N3CCCc4ccccc43)oc12`, the kinetic solubility came to 15.3 µg/mL (≈ 49.8 µM).

`COc1ccc(NC(=O)CCc2nc3ccccc3c(=O)[nH]2)cc1S(=O)(=O)N1CCCCC1` came in with a kinetic solubility of 9.6 µg/mL (≈ 20.4 µM).

On to `O=C(OCC(=O)N1CCc2ccccc21)c1ccccn1`, for which the solubility (kinetic) is more than 42.3 µg/mL.

`c1ccc(-c2csc(-c3ccncc3)n2)cc1` showed a kinetic solubility of 24.8 µg/mL (≈ 104 µM).

In turn, `O=C(NC1CCCc2ccccc21)c1cc(Cl)ccn1` (stereo not given) displayed a kinetic solubility of 13.2 µg/mL (≈ 46 µM).

In turn, `Cn1cc(C(=O)OCC(=O)N2CCCCC2)c2ccccc21` gave a kinetic solubility of more than 45.1 µg/mL.

In turn, `COc1ccccc1Oc1ccnc2cc(Cl)ccc12` gave a solubility (kinetic) of 9.1 µg/mL (≈ 31.8 µM).

In the case of `CCOC(=O)C1CCCN(Cc2nc(CC3CC3)no2)C1` (stereo not given), the solubility (kinetic) was 40 µg/mL (≈ 136 µM).

Compound `N/C(=N\OC(=O)Cc1ccccc1[N+](=O)[O-])c1ccccn1` yielded a solubility (kinetic) of 42.3 µg/mL (≈ 141 µM).

In the case of `CS(=O)(=O)N(CC(=O)Nc1ccc(Br)cc1F)C1CCCCC1`, the solubility (kinetic) was more than 61.1 µg/mL.

Regarding `O=S(=O)(NCc1cccnc1)c1ccc(Cl)c2ccccc12`, the kinetic solubility is more than 49.9 µg/mL.

In the case of `Cc1ccc(S(=O)(=O)N2CCCc3ccccc32)cc1C`, the solubility (kinetic) was found to be 2.3 µg/mL (≈ 7.63 µM).

In the case of `O=C(Nc1ccccc1)c1ccccc1C(=O)N1CCCCC1`, the kinetic solubility stood at 42.6 µg/mL (≈ 138 µM). This solubility kinetic lies about 19-fold higher than the previous one.

`CCO/C([O-])=N/c1c[n+](N2CCOCC2)no1` showed a kinetic solubility of more than 36.3 µg/mL.

The compound `O=C(Nc1ccc2c(c1)CCC2)c1ncoc1-c1ccccc1F` had a kinetic solubility of less than 0.3 µg/mL.

With `CC1=NN(c2ccccc2)C(=O)C1/C=C1\NC(=S)NC1=O` (stereo not given), the kinetic solubility is more than 45.1 µg/mL.

In turn, `Cc1cn2c(nc1=O)OC1CC2OC1CO` (stereo not given) registered a kinetic solubility of more than 33.6 µg/mL.

As for `Cc1cc(C)c(C)c(S(=O)(=O)Nc2cccnc2)c1C`, the solubility (kinetic) is 3.6 µg/mL (≈ 12.4 µM).

`CN1CCCN=C1COC(=O)C(O)(c1ccccc1)C1CCCCC1.Cl` (stereo not given) registered a solubility (kinetic) of more than 57.1 µg/mL.

In turn, `COc1cc(C=O)cc(Cl)c1OC(=O)N1CCOCC1` had a kinetic solubility of 39.5 µg/mL (≈ 132 µM).

Regarding `CC(NC(=O)CCNC(=O)c1ccco1)c1ccc(F)cc1` (stereo not given), the kinetic solubility was more than 45.6 µg/mL.

Turning to `NS(=O)(=O)c1cccc(NC(=O)CCC(=O)c2cccs2)c1`, the kinetic solubility is more than 50.8 µg/mL.

In turn, `COCc1nc2ccccc2n1Cc1ccccc1C` gave a solubility (kinetic) of more than 40 µg/mL.

`COc1ccc(NC(=O)CCn2ccnc2)c(OC)c1`: the solubility (kinetic) is 41.1 µg/mL (≈ 149 µM).

`O=C(O)c1nn(-c2ccccc2C(F)(F)F)cc1O` yielded a kinetic solubility of more than 40.8 µg/mL.

In turn, `COc1cc(/C=C/C(=O)N2CCc3ccccc3C2)cc(OC)c1OC` had a kinetic solubility of 46.6 µg/mL (≈ 132 µM).

`CC(C)OC(=O)c1cc2c(=O)[nH]c(C(Cl)(Cl)Cl)nc2o1` gave a kinetic solubility of 47.6 µg/mL (≈ 140 µM).

`CC(=O)Nc1ccc2nc(NC(=O)c3cccnc3)sc2c1` displayed a solubility (kinetic) of 7.4 µg/mL (≈ 23.7 µM).

In turn, `Cc1noc(C)c1COC(=O)/C=C/c1ccccc1Cl` displayed a kinetic solubility of 6.8 µg/mL (≈ 23.3 µM).

`Nc1cc(=O)[nH]c(SCC(=O)Nc2ccc(N3CCOCC3)cc2)n1` came in with a kinetic solubility of more than 54.2 µg/mL.

In the case of `N#C/C(=C\c1ccccc1)C(=O)N1CCN(c2ccccc2F)CC1`, the solubility (kinetic) amounted to 20.4 µg/mL (≈ 60.8 µM).

`CCCC1/C(=N/O)CC(c2ccccc2)NC1c1ccccc1` (stereo not given) gave a solubility (kinetic) of less than 0.3 µg/mL.

For the compound `CSc1nc2ccccc2c(=O)n1C1CCOC(C)(C)C1` (stereo not given), the solubility (kinetic) was 28.4 µg/mL (≈ 93.3 µM).

Turning to `Cc1ccc(NC(=O)CN2CCOCC2)c(Br)c1`, the kinetic solubility is more than 47 µg/mL.

Compound `O=C(COC(=O)c1cccnc1Cl)NC1CCCc2ccccc21` (stereo not given) came in with a kinetic solubility of more than 51.7 µg/mL.

Compound `COC(=O)c1c(C)[nH]c(C(=O)OCC(=O)NC(C)(C)C)c1C` returned a solubility (kinetic) of more than 46.6 µg/mL.

For `Cc1sc2ncnc(SCC(=O)NC3CCCC3)c2c1C`, the solubility (kinetic) was 5.2 µg/mL (≈ 16.2 µM).

As to `CCNc1oc(/C=C/c2ccc(OCC)cc2)nc1C#N`, the kinetic solubility was 1.7 µg/mL (≈ 6 µM).

On to `COc1ccc(CCNC(=O)COC(=O)C2CC2C)cc1` (stereo not given), for which the kinetic solubility is more than 43.7 µg/mL.

`O=C(Nc1ncccc1O)c1ccc2c(c1)OCCO2` yielded a solubility (kinetic) of more than 40.8 µg/mL.

In the case of `O=C(CNC(=O)c1cccs1)OCc1c(F)cccc1Cl`, the solubility (kinetic) turned out to be 42.4 µg/mL (≈ 129 µM).

`O=C(NCCCNC(=O)c1ccccn1)c1cccc(F)c1` displayed a kinetic solubility of 42.3 µg/mL (≈ 140 µM).

The compound `CN(C)c1cccc2c(C#N)ccc(N(C)C)c12` showed a kinetic solubility of less than 0.2 µg/mL.

Compound `CCOC(=O)N1CCN(Cc2ccc3c(c2)OCO3)CC1` displayed a solubility (kinetic) of 41.9 µg/mL (≈ 143 µM).

Turning to `OC1(c2ccc(F)cc2)CCN(Cc2cccnc2)CC1`, the kinetic solubility was more than 43 µg/mL.

As for `CCOC(=O)N1CCN(C(=O)C2CCN(C(=O)Nc3ccccc3)CC2)CC1`, the solubility (kinetic) was more than 58.3 µg/mL.

Take `CSc1ccccc1C(=O)Nc1ccc2c(c1)OCO2`: the solubility (kinetic) was more than 43.1 µg/mL.

In turn, `COc1ccc(/C=C/C(=O)N2CCNC(=O)C2)c(OC)c1` registered a solubility (kinetic) of 41.3 µg/mL (≈ 142 µM).

With `O=C(NC1CC1)c1cc(=S)[nH]c2ccccc12`, the kinetic solubility is more than 36.6 µg/mL.

For `COc1ccc(N(C=O)C(=S)SC)cc1`, the kinetic solubility amounted to 2.7 µg/mL (≈ 11.2 µM).

`COc1ccc(CCNC(=O)c2cc(C)oc2C)cc1` yielded a kinetic solubility of more than 41 µg/mL.

As for `CC(OC(=O)CCc1nc2ccccc2c(=O)[nH]1)C(=O)Nc1cccc(C(F)(F)F)c1` (stereo not given), the solubility (kinetic) was more than 65 µg/mL.

`Cc1ccc(NC(=O)CN2CCN(Cc3ccccc3)CC2)cc1` registered a solubility (kinetic) of more than 48.5 µg/mL.

Turning to `O=C(Nc1ccc2[nH]ccc2c1)c1ccccc1`, the solubility (kinetic) turned out to be 31.9 µg/mL (≈ 135 µM).

`CC(C)CC(=O)N1CC(=O)Nc2ccc(F)cc2C1c1ccccc1` (stereo not given) showed a kinetic solubility of more than 51.1 µg/mL.

For `Cc1cc(C)c(S(=O)(=O)NCC(=O)NCc2ccco2)c(C)c1`, the kinetic solubility worked out at 44.2 µg/mL (≈ 131 µM).

Take `O=C(NCc1ccccn1)C1CCCCC1`: the solubility (kinetic) is more than 32.7 µg/mL.

`COc1cccc2c(Cl)c(CCCl)c(C)nc12` had a solubility (kinetic) of 1.1 µg/mL (≈ 4.07 µM).

For the compound `CCOC(=O)Cc1csc(NC(=O)c2cccc([N+](=O)[O-])c2)n1`, the solubility (kinetic) was more than 50.3 µg/mL.
